From patent US20220304309A1, “IRON COMPLEXES AND USES THEREFOR” (priority 2019, published 2022)
“Also recorded” adds a separate entry of the source. Read-outs that look alike come from different tables or passages of the source.

Assays:
X. campestris = settings: for A600: 36 hours at 28° C.
[1] = test system: Pectobacterium carotovorum subsp. brasiliense (Pcb); test: In planta trial on Pcb-infiltrated potato tubers; settings: weekly foliar spray or root drench
[2] = Total, ferrous and ferric iron content of the complexes immediately after preparation (1,10-phenanthroline); settings: 50 mM solution; for Ferric iron: total minus ferrous
[3] = Fenton activity test with H2O2 and methylene blue
[4] = Stability of ferrous iron complexes in solution over 180 days; settings: for Ferrous iron / Total iron: room temperature in the dark; for Stability of solutions of the complex: stored at ambient temperature (TFDC in the dark)
[5] = Reduction of ferric iron in the ferric tri-pyruvate complex over 10 days; type: physicochemical
Experimental: A 50 mM solution of the ferric tri-pyruvate complex was prepared as described in Example 5. The stability of the complex was measured by determining the total iron, ferrous iron and ferric iron over the course of 10 days.

spores of B. subtilis = test: Decontamination of surfaces contaminated with B. subtilis spores; type: cell-based, Bacillus subtilis; settings: swabbing or spraying, optionally mixed with ascorbate and/or hydrogen peroxide
Experimental: In additional experiments, surfaces that have been intentionally contaminated with spores of B. subtilis are wiped or sprayed with solutions of FDP (e.g., 1 mM, 2 mM, 3 mM, 4 mM, 5 mM, 6 mM, 7 mM, 8 mM, 9 mM, 10 mM, 12.5 mM, 15 mM, 20 mM, 25 mM, 50 mM, 75 mM 100 mM or more); optionally including ascorbate (e.g. 10 mM) and/or hydrogen peroxide at a concentration of, e.g., 1 mM or less, 2 mM or less, 3 mM or less, 4 mM or less, 5 mM or less, 6 mM or less, 7 mM or less, 8 mM or less, 9 mM or less, 10 mM or less, 12.5 mM or less, 15 mM or less, 20 mM or less, 25 mM or less, 30 mM or less, 40 mM or less, 50 mM or less, 60 mM or less, 70 mM or less, 80 mM or less, 90 mM or less, 100 mM or less, 125 mM or less, 150 mM or less, 175 mM or less, or 200 mM or less. The surfaces are then swabbed, the swabs are suspended in water or medium, and CFU are determined by plating aliquots of serial dilutions of the liquid in which the swabs were suspended.

Bacillus subtilis = test: Bactericidal and sporicidal activity on Bacillus subtilis cells or spores suspended in water; type: cell-based; settings: increasing concentrations and exposure times; 10 mM sodium ascorbate, sub-inhibitory hydrogen peroxide
Experimental: Because of its activity as a Fenton reagent, FDP produces reactive oxygen species (e.g. hydroxyl radicals, superoxide radicals) that are toxic to bacterial spores and spore-forming bacteria. […] After exposure to FDP for various periods of time, the number of viable colony-forming units is determined by plating aliquots of serial dilutions of the solutions.

C. liberibacter spp = type: in vivo, rough lemon trees; settings: 50 μM, foliar or root drench, every three days over three months
[6] = 1 ml 50 mM complex + 1 ml 40% H2O2, 0.1% (w/v) methylene blue, 1 hour at ambient temperature
[7] = 60 Days after complex formation
[8] = 180 Days after complex formation
[9] = 0 days after complex formation, 50 mM solution
[10] = 1 day after complex formation, 50 mM solution
[11] = 7 days after complex formation, 50 mM solution
[12] = 10 days after complex formation, 50 mM solution

Work on `O=C1O[C@H]([C@@H](O)CO)C([O-])=C1O.[Na+]` [ascorbate, sodium ascorbate, reference compound] yielded an A600 (X. campestris; no preincubation, addition 5 mM ascorbate) of 0.512.
For `O=C([O-])CC(O)(CC(=O)[O-])C(=O)[O-].O=C([O-])CC(O)(CC(=O)[O-])C(=O)[O-].[Fe+2].[Fe+2].[Fe+2]` [tri-ferrous di-citrate], the “Symptoms of Pcb infection in potato plants” value [1] was “reduce symptom of Pcb infection”, the Ferrous iron [2] was 49.7 mM and the Total iron [2] was 50 mM. The Ferric iron [2] was under 1 mM, the “Fenton activity (loss of blue color, brown precipitate)” value [3, 6] was “exhibited Fenton activity” and the “Fenton activity (loss of blue color, brown precipitate)” value ([3]; 1 ml 50 mM complex + 1 ml 40% H2O2, 0.1% (w/v) methylene blue, 1 hour at ambient temperature, listed as tri-ferrous di-citrate complex) was “significant Fenton activity”. The “Light sensitivity on storage” value [4] was “must be stored in the dark to prevent autodegradation”, the Ferrous iron ([4]; 1 Day after complex formation) was 100 mM and the Total iron ([4]; 1 Day after complex formation) was 100 mM. It also gave a Ferrous iron [4, 7] of 99 mM, a Total iron [4, 7] of 100 mM and a Ferrous iron [4, 8] of 98 mM. The Total iron [4, 8] was 100 mM and the “Stability of solutions of the complex” value [4] was “stable for up to six months”.
With “ferric tri-pyruvate [ferric tri-pyruvate complex]” the “Fenton activity (loss of blue color, brown precipitate)” value ([3]; 14-day old reduced complex, 50 mM + 40% H2O2, 1 hour at ambient temperature) was “significant Fenton activity”, the Ferric iron [5, 9] was over 49 mM and the Ferrous iron [5, 9] was under 1 mM. For the same compound, the Total iron [5, 9] was 50 mM, the “Oxidation state of the iron upon formation of the complex” value ([5]; 50 mM solution) was “essentially all the iron was in the ferric oxidation state” and the Ferric iron [5, 10] was 39 mM. It also gave a Ferrous iron [5, 10] of 11 mM, a Total iron [5, 10] of 50 mM and a Ferric iron [5, 11] of 2 mM. For the same compound, the Ferrous iron [5, 11] was 48 mM, the Total iron [5, 11] was 50 mM and the Ferric iron [5, 12] was 2 mM. For the same compound, the Ferrous iron [5, 12] was 48 mM, the Total iron [5, 12] was 50 mM and the “Reduction of ferric ions to ferrous” value ([5]; after one week (7-day period)) was “essentially all iron is in the ferrous oxidation state; also recorded: essentially all the ferric iron was reduced to the ferrous oxidation state”. The “Reduction of ferric ions to ferrous” value ([5]; within one day after formation of the complex, ambient conditions) was “approximately one-fifth of ferric ions have been reduced to ferrous”.
In the case of ferrous di-pyruvate, the “Symptoms of Pcb infection in potato plants” value [1] is reported as “reduce symptom of Pcb infection”, the “Sterilization of surfaces contaminated with B. subtilis spores” value (spores of B. subtilis) is reported as “sterilizes the surfaces” and the “Cell killing of B. subtilis cells or spores (viable CFU)” value (Bacillus subtilis) is reported as “higher levels of cell killing”. The “Effect on growth of X. campestris (in words)” value (X. campestris; Table 5, most pronounced after preincubation with ascorbate and copper) was “able to block the growth of X. campestris”, the “Killing of X. campestris (in words)” value (X. campestris; Table 6, most pronounced after preincubation with ascorbate and copper) was “able to kill X. campestris” and the CFU (X. campestris; no preincubation, addition 5 mM ascorbate + 5 μM Cu(II) + 0.25 mM FDP, 36 hour treatment) was 2.28 × 10^9 CFU per ml. For the same compound, the A600 (X. campestris; no preincubation, addition 5 mM ascorbate + 5 μM Cu(II) + 0.25 mM FDP) was 0.420, the A600 (X. campestris; no preincubation, addition 5 mM ascorbate + 0.25 mM FDP) was 0.447 and the Ferrous iron [2] was 49.5 mM. The Total iron [2] was 50 mM, the Ferric iron [2] was under 1 mM and the “Fenton activity (loss of blue color, brown precipitate)” value [3, 6] was “exhibited Fenton activity”. For the same compound, the “Fenton activity (loss of blue color, brown precipitate)” value ([3]; 1 ml 50 mM complex + 1 ml 40% H2O2, 0.1% (w/v) methylene blue, 1 hour at ambient temperature, listed as ferrous di-pyruvate complex) was “significant Fenton activity”, the “Number of leaf and root samples containing C. liberibacter spp nucleic acid (PCR)” value (C. liberibacter spp) was “reduces the number of leaf and root samples containing C. liberibacter spp nucleic acid” and the “Number of plants showing signs of chlorosis” value (C. liberibacter spp) was “reduces the number of plants showing signs of chlorosis”. For the same compound, the Ferrous iron ([4]; 1 Day after complex formation) was 99 mM, the Total iron ([4]; 1 Day after complex formation) was 100 mM and the Ferrous iron [4, 7] was 97 mM. For the same compound, the Total iron [4, 7] was 100 mM, the Ferrous iron [4, 8] was 98 mM and the Total iron [4, 8] was 100 mM. For the same compound, the “Stability of solutions of the complex” value [4] was “stable for up to six months”.
With “mono-ferrous di-citrate [mono-ferrous di-citrate complex, reference compound]” the “Fenton activity (loss of blue color, brown precipitate)” value [3, 6] was “little to no Fenton activity”.
For “mono-ferrous mono-citrate [mono-ferrous mono-citrate complex, reference compound]”, the “Fenton activity (loss of blue color, brown precipitate)” value [3, 6] was “little to no Fenton activity”.
